Results as given in the OPERA property sets (Mansouri et al. 2018).
≈ marks a conversion by molar mass, not a printed value.

Row | SMILES | solubility [mM] | solubility (25 °C) [mM] | also measured
1 | N#CCC(=O)Nc1ccccc1 |  |  | solubility (23 °C): 1.87 mM (≈ 300 µg/mL)
2 | CCOC(=O)c1[nH]c(C=O)c(CC)c1C |  |  | solubility (20 °C): 1.91 mM (≈ 400 µg/mL)
3 | O=C1CN(CO)C(=O)CN1CO | 383 (≈ 66700 µg/mL) |  | 
4 | O=C(O)c1ccc2ccccc2n1 |  | 81.1 (≈ 14000 µg/mL) | 
5 | CCOC(=O)C(CC(=O)O)=C(c1ccccc1)c1ccccc1 | 6.44 (≈ 2000 µg/mL) |  | 
6 | O=C(S)CCCCCCC(=O)S |  |  | solubility (26 °C): 5.82 mM (≈ 1200 µg/mL)
7 | O=C(O)c1ccc(NC(=O)c2cccnc2)cc1 |  | 0.826 (≈ 200 µg/mL) | 
8 | CCc1nc2ncnc(O)c2nc1CC |  |  | solubility (20 °C): 12.2 mM (≈ 2500 µg/mL)
9 | CCOC(=O)c1c(C(=O)O)ccc(OC)c1OC | 5.58 (≈ 1420 µg/mL) |  | 
10 | Cc1cc(O)c(C(=O)O)c(O)c1 |  |  | solubility (20 °C): 8.92 mM (≈ 1500 µg/mL)
11 | COCC(=O)c1ccccc1 | 173 (≈ 26000 µg/mL) |  | 
12 | Nc1cc([N+](=O)[O-])ccc1Br |  | 0.277 (≈ 60 µg/mL) | 
13 | O=C(O)CCC(=O)c1cccc2ccccc12 |  | 0.329 (≈ 75 µg/mL) | 
14 | CCN(C(N)=O)c1ccccc1C |  | 617 (≈ 110000 µg/mL) | 
15 | CCC(C#N)(CC)C(=O)NC(N)=O |  |  | solubility (20 °C): 27.3 mM (≈ 5000 µg/mL)
16 | ON=C1C=CC(=NO)c2ncccc21 |  | 0.159 (≈ 30 µg/mL) | 
17 | NC(=O)C=Cc1ccccc1[N+](=O)[O-] | 52 (≈ 10000 µg/mL) |  | 
18 | CCCC[C@H](NC(C)=O)C(=O)O (racemic) |  | 307 (≈ 53100 µg/mL) | 
19 | CCCC(C)C(O)CC (configuration not stated) |  | 10.9 (≈ 1420 µg/mL) | 
20 | NC(CS(=O)(=O)c1ccc(Cl)cc1)C(=O)O (configuration not stated) | 2.93 (≈ 774 µg/mL) |  | 
21 | O=S(=O)(c1ccccc1O)c1ccccc1O |  |  | solubility (23 °C): 0.48 mM (≈ 120 µg/mL)

Row | SMILES | solubility [mM] | solubility (25 °C) [mM] | also measured
22 | O=C(c1cccc2ccccc12)N(O)c1ccccc1 | 0.114 (≈ 30 µg/mL) |  | 
23 | Cc1cccc(Cl)c1O |  | 168 (≈ 24000 µg/mL) | 
24 | CCCCCOP(=O)(OCC)OCC |  | 33.4 (≈ 7500 µg/mL) | 
25 | Cc1cc(Cl)cc(Cl)c1O |  | 9.04 (≈ 1600 µg/mL) | 
26 | CCC1(c2ccccc2)NC(=O)NC1=O (configuration not stated) |  | 6.76 (≈ 1380 µg/mL) | 
27 | Cc1ccc(NO)cc1 | 162 (≈ 20000 µg/mL) |  | 
28 | CC1OC(=O)c2cc([N+](=O)[O-])ccc21 (configuration not stated) |  | 2.42 (≈ 468 µg/mL) | 
29 | O=[N+]([O-])c1cccc(CO)c1 |  |  | solubility (20 °C): 3.85 mM (≈ 590 µg/mL)
30 | c1ccc(CNCCNCc2ccccc2)cc1 |  |  | solubility (24 °C): 16.3 mM (≈ 3930 µg/mL)
31 | N#CSc1ccc(N)cc1 |  | 2.5 (≈ 376 µg/mL) | 
32 | CC(C)(NC(=O)c1ccccc1)C(N)=O | 24.2 (≈ 5000 µg/mL) |  | 
33 | COc1cc(C(C)=O)ccc1O |  |  | solubility (20 °C): 30.1 mM (≈ 5000 µg/mL)
34 | Cc1ccccc1N(C)C(N)=O |  | 395 (≈ 64900 µg/mL) | 
35 | Cc1c(Cl)c(O)c(Cl)c(Cl)c1Cl |  | 0.025 (≈ 6.15 µg/mL) | 
36 | C[C@H](NC(=O)c1ccccc1)C(=O)O (racemic) | 20.7 (≈ 4000 µg/mL) |  | 
37 | CCCCCCOC(=O)c1ccc(O)cc1 |  |  | solubility (30 °C): 0.112 mM (≈ 25 µg/mL)
38 | O=C1CNC(=O)C(Cc2ccc(O)cc2)N1 (configuration not stated) | 90.8 (≈ 20000 µg/mL) |  | 
39 | Clc1cnc2ncncc2n1 |  |  | solubility (20 °C): 75 mM (≈ 12500 µg/mL)
40 | c1ccc2c3c(ccc2c1)Sc1ccc2ccccc2c1N3 |  |  | solubility (20 °C): 1.24e-05 mM (≈ 0.0037 µg/mL)
41 | C=CCOC(CO)CO | 3030 (≈ 400000 µg/mL) |  | 
42 | O=C(O)C(=O)C(c1ccccc1)c1ccccc1 | 4.62 (≈ 1110 µg/mL) |  | 
